Molecular target: protein-protein interaction between SOS1 and KRAS G12D (Homo sapiens (Human), UniProt Q07889)
Assay: KRAS::SOS1 AlphaScreen Binding Assay
Source text: KRAS::SOS1 AlphaScreen Binding Assay
Low IC50 values are indicative of high potency of the SOS1 inhibitor compound in this assay setting:
Reagents: • GST-tagged SOS1 (564_1049_GST_TEV_ECO) produced in-house • GST-TEV-SOS1 (564-1049) is purchased from Viva Biotech Ltd. • 6×His-Tev-K-RasG12D(1-169)Avi is purchased from Xtal BioStructures, Inc. (Lot # X129-110) • GDP (Sigma Cat No G7127) • AlphaLISA Glutathione Acceptor Beads (PerkinElmer, Cat No AL109) • AlphaScreen Streptavidin Donor Beads (PerkinElmer Cat No 6760002) • Assay plates: Proxiplate-384 PLUS, white (PerkinElmer, Cat No 6008289)
10 nM (final assay concentration) KRAS G12D, 10 μM (final assay concentration) GDP and 5 nM (final assay concentration) GST-SOS1 are mixed in assay buffer prior to use and kept at room temperature.
AlphaLISA Glutathione Acceptor Beads and AlphaScreen Streptavidin Donor Beads are mixed in assay buffer at a concentration of 10 μg/mL (final assay concentration) each prior to use and kept at room temperature.
Compounds are diluted to a final start concentration of 100 μM and are tested in duplicate. Assay-ready plates (ARPs) are generated using an Access Labcyte Workstation with a Labcyte Echo 550 or 555 accoustic dispenser. For compound a start concentration of 100 μM, 150 nL of compound solution is transferred per well in 11 concentrations in duplicate with serial 1:5 dilutions.
The assay is run using a fully automated robotic system in a darkened room below 100 Lux. 10 μL of KRAS::SOS1 GDP mix is added into columns 1-24 to the 150 nL of compound solution (final dilution in the assay 1:100, final DMSO concentration 1%).
After a 30 minute incubation time 5 μL of bead mix is added into columns 1-23. Plates are kept at room temperature in a darkened incubator. After a further 60 minute incubation, the signal is measured using a PerkinElmer Envision HTS Multilabel Reader using the AlphaScreen specifications from PerkinElmer. Each plate contains the following controls: • diluted DMSO+KRAS::SOS1 GDP mix+bead mix • diluted DMSO+KRAS::SOS1 GDP mix
IC50 values are calculated and analyzed using a 4 parametric logistic model.

[1] = Table 20, KRAS::SOS1 AlphaScreen (SOS1 / KRAS G12D)
[2] = KRAS G12D::SOS1 AlphaScreen, measured without EDTA unless marked with an asterisk

Chain of protein-protein interaction between SOS1 and KRAS G12D (Q07889 564-1049, stated change not applied): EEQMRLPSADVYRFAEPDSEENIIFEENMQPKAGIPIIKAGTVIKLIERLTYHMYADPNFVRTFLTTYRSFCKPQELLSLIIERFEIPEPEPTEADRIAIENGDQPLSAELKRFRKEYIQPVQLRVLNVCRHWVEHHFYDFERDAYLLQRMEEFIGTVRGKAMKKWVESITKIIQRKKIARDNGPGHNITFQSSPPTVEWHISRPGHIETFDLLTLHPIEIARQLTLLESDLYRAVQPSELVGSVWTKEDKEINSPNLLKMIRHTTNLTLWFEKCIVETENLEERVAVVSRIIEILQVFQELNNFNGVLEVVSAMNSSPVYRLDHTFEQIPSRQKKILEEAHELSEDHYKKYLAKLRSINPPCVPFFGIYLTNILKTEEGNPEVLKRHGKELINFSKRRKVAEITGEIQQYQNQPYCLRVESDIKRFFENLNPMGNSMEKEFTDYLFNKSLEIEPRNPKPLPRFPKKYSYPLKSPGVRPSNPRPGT

SMILES | IC50 [1] [nM] | IC50 [2] [nM]
Cc1nc(N[C@H](C)c2cccc(C(F)F)c2F)c2cn(C3(C)CC3)c(=O)cc2n1 [I-1] | 5 | –
Cc1nc(N[C@H](C)c2cccc(C(F)(F)F)c2C)c2cn([C@H]3C[C@H](O)C3)c(=O)cc2n1 [I-43] | 5 | –
Cc1nc(N[C@H](C)c2cccc(C(F)F)c2F)c2cn(C3(c4ccccc4)CC3)c(=O)cc2n1 [I-8] | 16 | –
Cc1nc(N[C@H](C)c2cccc(C(F)(F)F)c2F)c2cn([C@H]3CCOC3)c(=O)cc2n1 [I-34] | 39 | –
Cc1nc(N[C@H](C)c2cccc(C(F)F)c2F)c2cn(C34CC(N5CCOCC5)(C3)C4)c(=O)cc2n1 [I-17] | 5 | –
Cc1nc(N[C@H](C)c2cccc(C(F)F)c2F)c2cn(C34CCC(CC3)C4)c(=O)cc2n1 [I-19] | 2 | –
Cc1nc(N[C@H](C)c2cccc(C(F)(F)F)c2C)c2cn([C@H]3C[C@@H](O)C3)c(=O)cc2n1 [I-44] | 12 | –
Cc1nc(N[C@H](C)c2cccc(C(F)F)c2F)c2cn(C34CC(C3)C4)c(=O)cc2n1 [I-15] | 8 | –
Cc1nc(N[C@H](C)c2cccc(C(F)(F)F)c2C)c2cn([C@H]3[C@@H]4COC[C@@H]43)c(=O)cc2n1 [I-40] | 9 | –
Cc1nc(N[C@H](C)c2cccc(C(F)F)c2F)c2cn(C3(c4ccc(F)cc4)CC3)c(=O)cc2n1 [I-9] | 30 | –
Cc1nc(N[C@H](C)c2cccc(C(F)(F)F)c2)c2cn(C3CCCC3)c(=O)cc2n1 [I-28] | 27 | –
Cc1nc(N[C@H](C)c2cccc(C(F)F)c2F)c2cn(C3(c4ccncc4)CC3)c(=O)cc2n1 [I-7] | 8 | –
Cc1nc(N[C@H](C)c2cccc(C(F)(F)F)c2C)c2cn(C3(C)CCC3)c(=O)cc2n1 [I-42] | 9 | –
Cc1nc(N[C@H](C)c2cccc(C(F)(F)F)c2F)c2cn(C3CCOCC3)c(=O)cc2n1 [I-35] | 9 | –
Cc1nc(N[C@H](C)c2cccc(C(F)F)c2C)c2cn(C34CCC(C(=O)N(C)C)(CC3)C4)c(=O)cc2n1 [I-24] | 10 | –
Cc1nc(N[C@H](C)c2cccc(C(F)(F)F)c2)c2cn(C3CCOCC3)c(=O)cc2n1 [I-31] | 11 | –
Cc1nc(N[C@H](C)c2cccc(C(F)F)c2F)c2cn(C3(CF)CC3)c(=O)cc2n1 [I-2] | 4 | –
Cc1nc(N[C@H](C)c2cccc(C(F)F)c2F)c2cn(C3CCOCC3)c(=O)cc2n1 [I-18] | 5 | –
Cc1nc(N[C@H](C)c2cccc(C(F)F)c2F)c2cn(C34CC(F)(C3)C4)c(=O)cc2n1 [I-16] | 12 | –
Cc1nc(N[C@H](C)c2cccc(C(F)(F)F)c2)c2cn(C3CC3)c(=O)cc2n1 [I-26] | 37 | –
Cc1nc(N[C@H](C)c2cccc(C(F)(F)F)c2C)c2cn(C3CCC3)c(=O)cc2n1 [I-41] | 14 | –
Cc1nc(N[C@H](C)c2cccc(C(F)(F)F)c2)c2cn(C3CCCCC3)c(=O)cc2n1 [I-29] | 24 | –
Cc1nc(N[C@H](C)c2cccc(C(F)(F)F)c2)c2cn(C3CCC(F)(F)CC3)c(=O)cc2n1 [I-30] | 39 | –
Cc1nc(N[C@H](C)c2cccc(C(F)(F)F)c2F)c2cn([C@@H]3CCOC3)c(=O)cc2n1 [I-33] | 38 | –
Cc1nc(N[C@H](C)c2cccc(C(F)F)c2F)c2cn([C@H]3C[C@H](F)C3)c(=O)cc2n1 [I-12] | 7 | –
Cc1nc(N[C@H](C)c2cccc(C(F)(F)F)c2F)c2cn([C@H]3[C@@H]4COC[C@@H]43)c(=O)cc2n1 [I-32] | 12 | –
Cc1nc(N[C@H](C)c2cccc(C(F)F)c2F)c2cn(C3(C)CCC3)c(=O)cc2n1 [I-11] | 5 | –
Cc1nc(N[C@H](C)c2cccc(C(F)(F)F)c2F)c2cn(C3(c4ccccc4)CCOCC3)c(=O)cc2n1 [I-36] | 40 | –

Other lines, results leading:

IC50 [1] [nM] | IC50 [2] [nM] | SMILES
3 | – | Cc1nc(N[C@H](C)c2cccc(C(F)(F)C3CCCO3)c2)c2cn(C3(C(F)F)CC3)c(=O)c(F)c2n1 (stereo partly drawn) [I-93]
– | 25 | C[C@@H](Nc1ncnc2cc(=O)n(C3(C)CC3)cc12)c1cccc2c1CCC2=O [I-105]
7 | – | C[C@@H](Nc1ncnc2cc(=O)n(C3(C)CC3)cc12)c1cccc(C(F)F)c1F [I-62]
7 | – | C[C@@H](Nc1ncnc2cc(=O)n(C34CC(C3)C4)cc12)c1cccc(C(F)F)c1F [I-70]
5 | – | Cc1nc(N[C@H](C)c2cccc(C(F)(F)[C@@H]3CCCO3)c2F)c2cn(C3(C(F)F)CC3)c(=O)c(F)c2n1 [I-95]
– | 13 | Cc1c(=O)n(C2(C(F)(F)F)CC2)cc2c(N[C@H](C)c3cccc(C(F)F)c3F)ncnc12 [I-164]
– | 5 | Cc1nc(N[C@H](C)c2cccc(C(F)F)c2F)c2cn(C3(C)CC3)c(=O)c(C)c2n1 [I-155]
– | 26 | Cc1nc(N[C@H](C)c2cccc(C(F)(F)F)c2)c2cn(C3(C)CCN(C)CC3)c(=O)cc2n1 [I-114]
– | 9 | Cc1c(=O)n(C2(C)CC2)cc2c(N[C@H](C)c3cccc(C(C)(F)F)c3F)ncnc12 [I-174]
– | 13 | Cc1nc(N[C@H](C)c2cccc(C(F)(F)F)c2)c2cn(C3(C)CCOCC3)c(=O)cc2n1 [I-112]
5 | – | Cc1nc(N[C@H](C)c2cccc(C(F)F)c2F)c2cn(C3(C(F)F)CC3)c(=O)c(F)c2n1 [I-82]
7 | – | C[C@@H](Nc1ncnc2cc(=O)n(C3(CF)CC3)cc12)c1cccc(C(F)F)c1F [I-63]
– | 6 | Cc1nc(N[C@H](C)c2cccc(C(F)F)c2F)c2cn(C34CCC(CC3)CC4)c(=O)cc2n1 [I-120]
4 | – | Cc1nc(N[C@H](C)c2cccc(C(F)(F)C(C)(C)O)c2F)c2cn(C34CC(F)(C3)C4)c(=O)c(F)c2n1 [I-91]
– | 17 | C[C@@H](Nc1ncnc2cc(=O)n(C34CC(C3)C4)cc12)c1cccc2c1CCC2=O [I-107]
– | 2 | Cc1nc(N[C@H](C)c2cccc3c2CCC3(F)F)c2cn(C34CCN(CC3)C4)c(=O)c(C)c2n1 [I-160]
13 | – | Cc1nc(N[C@H](C)c2cccc(C(C)(F)F)c2F)c2cn(C3(C(F)(F)F)CC3)c(=O)cc2n1 [I-55]
4 | – | Cc1nc(N[C@H](C)c2cccc(C(F)(F)C3CCCO3)c2)c2cn(C3(C)CC3)c(=O)c(F)c2n1 (stereo partly drawn) [I-92]
7 | – | Cc1nc(N[C@H](C)c2cccc(C(C)(F)F)c2)c2cn(C3(C(F)F)CC3)c(=O)cc2n1 [I-99]

IC50 [1] [nM] | IC50 [2] [nM] | SMILES
8 | – | C[C@@H](Nc1ncnc2cc(=O)n(C3(C(F)F)CC3)cc12)c1cccc(C(F)F)c1F [I-64]
– | 20 | Cc1nc(N[C@H](C)c2cccc(C(F)F)c2F)c2cn([C@@]3(C(F)(F)F)CCOC3)c(=O)cc2n1 [I-118]
31 | – | Cc1nc(N[C@H](C)c2cccc(C(F)(F)F)c2C)c2cn(C3(C)CC(F)(F)C3)c(=O)cc2n1 [I-46]
– | 9 | Cc1nc(N[C@H](C)c2cccc(C(F)F)c2F)c2cn(C3(C(F)(F)F)CCOC3)c(=O)cc2n1 (stereo partly drawn) [I-117]
10 | – | C[C@@H](Nc1ncnc2cc(=O)n(C3(C(F)(F)F)CC3)cc12)c1cccc(C(F)F)c1F [I-65]
– | 5 | Cc1c(=O)n(C23CC(F)(C2)C3)cc2c(N[C@H](C)c3cccc(C(F)(F)C(C)(C)O)c3F)ncnc12 [I-178]
2 | – | Cc1nc(N[C@H](C)c2cccc3c2CCC3(F)F)c2cn(C34CCN(CC3)C4)c(=O)cc2n1 [I-60]
30 | – | Cc1nc(N[C@H](C)c2cccc(CC(F)(F)F)c2)c2cn(C3(C(F)F)CC3)c(=O)cc2n1 [I-100]
6 | – | C[C@@H](Nc1ncnc2cc(=O)n(C3(CF)CC3)cc12)c1cccc(C(C)(F)F)c1F [I-77]
27 | – | Cc1nc(N[C@H](C)c2cccc(C(F)(F)F)c2C)c2cn([C@H]3C[C@@](O)(C(F)(F)F)C3)c(=O)cc2n1 [I-48]
– | 39 | Cc1nc(N[C@H](C)c2cccc(C(F)(F)F)c2)c2cn(C3(C)CCCOC3)c(=O)cc2n1 (stereo partly drawn) [I-113]
– | 9 | Cc1nc(N[C@H](C)c2cccc(C(F)(F)F)c2)c2cn(C3(C)CCOC3)c(=O)cc2n1 (stereo partly drawn) [I-111]
– | 10 | Cc1nc(N[C@H](C)c2cccc(C(F)(F)F)c2)c2cn(C34CCC(CC3)C4)c(=O)cc2n1 [I-115]
– | 25 | Cc1nc(N[C@H](C)c2cccc(C(F)(F)F)c2)c2cn(C(C)(C)C)c(=O)cc2n1 [I-110]
– | 9 | Cc1c(=O)n([C@H]2C[C@H](F)C2)cc2c(N[C@H](C)c3cccc(C(F)F)c3F)ncnc12 [I-168]
15 | – | C[C@@H](Nc1ncnc2cc(=O)n(C3CC34CC4)cc12)c1cccc(C(F)F)c1F (stereo partly drawn) [I-66]
– | 13 | Cc1c(=O)n(C2(CF)CC2)cc2c(N[C@H](C)c3cccc(C(C)(F)F)c3F)ncnc12 [I-175]
– | 36 | Cc1c(=O)n(C2CC23CC3)cc2c(N[C@H](C)c3cccc(C(F)F)c3F)ncnc12 (stereo partly drawn) [I-167]
– | 6 | C[C@@H](Nc1ncnc2cc(=O)n(C34CCC(CC3)C4)cc12)c1cccc2c1CCC2=O [I-109]
